Source: patent US20230270748A1, “COMBINATION OF A BCL-2 INHIBITOR AND A HYPOMETHYLATING AGENT FOR TREATING CANCERS, USES AND PHARMACEUTICAL COMPOSITIONS THEREOF” (LES LABORATOIRES SERVIER, priority 2020, published 2023)

Columns and labels:
Type in all cases: cell-based
AML cell line HL-60 = test: Cell viability (CellTiterGlo, 3 days), single agents and combination, in HL-60; conditions: Homo sapiens, 72 h; HL-60, single agent, 3 days incubation, CTG signal
AML cell line EOL-1 = test: Cell viability (CellTiterGlo, 3 days), single agents and combination, in EOL-1; conditions: Homo sapiens, EOL1, 72 h; EOL-1, single agent, 3 days incubation, CTG signal
AML cell line OCI-AML3 = test: Cell viability (CellTiterGlo, 3 days), single agents and combination, in OCI-AML3; conditions: Homo sapiens, OCI-AML-3, 72 h; OCI-AML3, single agent, 3 days incubation, CTG signal
AML cell line MV4;11 = test: Cell viability (CellTiterGlo, 3 days), single agents and combination, in MV4;11; conditions: Homo sapiens, 72 h; MV4;11, single agent, 3 days incubation, CTG signal

Which IC50 (AML cell line HL-60) does the source give for Nc1ncn([C@@H]2O[C@H](CO)[C@@H](O)[C@H]2O)c(=O)n1 [5-azacitidine, azacitidine] here?
The IC50 was greater than 10000 nM.

What about the IC50 (AML cell line EOL-1) of the same molecule?
The IC50 was 187 nM.

And the IC50 (AML cell line OCI-AML3)?
The IC50 was 7100 nM.

And the IC50 (AML cell line MV4;11)?
The IC50 was 689 nM.

Which IC50 (AML cell line HL-60) does the source give for Cc1c(N(C(=O)c2cc(-c3cc(Cl)ccc3C(=O)N3Cc4ccccc4C[C@H]3CN3CCOCC3)n(C)c2C)c2ccc(O)cc2)cc(C#N)n1C [Compound A, 5-(5-chloro-2-{[(3S)-3-(morpholin-4-ylmethyl)-3,4-dihydroisoquinolin-2(1H)-yl]carbonyl}phenyl)-N-(5-cyano-1,2-dimethyl-1H-pyrrol-3-yl)-N-(4-hydroxyphenyl)-1,2-dimethyl-1H-pyrrole-3-carboxamide] here?
Its IC50 is 3100 nM.

And the IC50 (AML cell line EOL-1)?
The IC50 was 18 nM.

And the IC50 (AML cell line OCI-AML3)?
Its IC50 is 5690 nM.

What about the IC50 (AML cell line MV4;11) of the same molecule?
The IC50 was 3 nM.
